# Measured values from article PMC9052545 (RSC Advances, 2020).
# Biological target: HER2-Fc (HER2) (Homo sapiens, UniProt P04626)
# Settings: SEM, n = 3
row,Kd,Substance
1,500 ± 150 nM,FN3 with RKPKSG grafted at residues 51-56 (His-tagged) [FN3-p4.4]
2,110 ± 28 nM,FN3 with YCPVCM grafted at residues 51-56 (His-tagged) [FN3-p1.M.3]
3,68 ± 14 nM,FN3 with YCICCM grafted at residues 51-56 (His-tagged) [FN3-p1.M.1]
4,280 ± 23 nM,FN3 with YCGCEM grafted at residues 51-56 (His-tagged) [FN3-p1]
